Measured values: US20260042847A1, “CYSTEINE ENGINEERED ANTIBODY CONSTRUCTS, CONJUGATES AND METHODS OF USE” (ZYMEWORKS INC., priority 2021, published 2026)
Square brackets hold non-standard residues; d marks the D form. Peptide text beside a SMILES is read from it. * marks the point of attachment. Dolaproine = CO[C@@H]([C@@H]1CCCN1)[C@@H](C)C(=O)O; Dil = CC[C@H](C)[C@H](NC)[C@@H](CC(=O)O)OC; X1 = C[C@@H](N*)[C@@H](O)c1ccccc1; NMeV = CN[C@H](C(=O)O)C(C)C

What was measured:
Assay type in all cases: cell-based
[1] = system: EBC-1 cell line (high c-Met-expressing); test: In vitro cytotoxicity (CellTiter-Glo), EBC-1; conditions: 4 nights incubation; n = 2
Procedure: (§1) Cytotoxicity of the ADCs from Example 3 comprising either MCvcPABC-MMAE or MTvcCompound 1 was tested in vitro against a variety of tumor cell lines expressing the target surface antigen (c-Met) as described below. The following cell lines were used (Table 9.1).
(§2) Each of the cell lines shown in Table 9.1 was grown in the respective complete growth medium until assay day. After removal from the culture vessels using Trypsin-EDTA, cells were counted using a Scepter™ Cell Counter (Sigma-Aldrich Canada, Oakville, ON). Cells were diluted in complete growth medium to 20,000 cells/mL, such that 50 μL/well in 384-well plates equaled 1,000 cells/well, unless otherwise specified. All ADCs were diluted to 15 nM starting concentration in complete growth medium (RPMI 1640) followed by a 1:3 dilution in sterile 96-well dilution plates (final volume 200 μL/well). Samples (20 μL/well) were transferred into a 384-well plate in duplicate. Plates were then seeded with 20,000 cell/mL suspension of test cell line (50 μL/well), unless otherwise specified. […] After incubation, cell viability was quantified by adding 1×CellTiter-Glo® reagent (Promega Corporation, Madison, WI) at 10 μL/well. After incubating for 30 min in the dark, luminescence was measured using a Synergy™ H1 Hybrid Multi-Mode Reader (BioTek Instruments Inc., Winooski, VT). Data was analyzed with Prism 7 software (GraphPad Prism Software).

[2] = system: BT-20 cell line (low c-Met expressing); test: In vitro cytotoxicity (CellTiter-Glo), BT-20; conditions: 4 nights incubation; n = 2; IC = cytotoxicity shown but curve not optimal for accurate EC50
Procedure: as §1, §2

[3] = system: H292 cell line (mid c-Met expressing); test: In vitro cytotoxicity (CellTiter-Glo), H292; conditions: 4 nights incubation; n = 2; IC = cytotoxicity shown but curve not optimal for accurate EC50
Procedure: as §1, §2

[4] = system: HCC827 cell line (mid c-Met expressing); test: In vitro cytotoxicity (CellTiter-Glo), HCC827; conditions: 4 nights incubation; n = 2
Procedure: as §1, §2

Structure (SMILES): CC[C@H](C)[C@@H]([C@@H](CC(=O)N1CCC[C@H]1[C@H](OC)[C@@H](C)C(=O)N[C@H](C)[C@@H](O)c1ccccc1)OC)N(C)C(=O)[C@@H](NC(=O)[C@@H](NC)C(C)C)C(C)C [MMAE] (H-[NMeV]V[Dil][Dolaproine]-X1)
- EC50 [1]: 0.16 nM
- EC50 [2]: 0.13 nM
- EC50 [3]: 0.11 nM
- EC50 [4]: 0.36 nM
